The text below walks through data of BindingDB's records for doi:10.1021/jm0503244 (Merck Research Laboratories, 2005).

Holding throughout (experiment): S1P Receptor Binding Assay
The target of experiment [1] is T1, Sphingosine 1-phosphate receptor 4 (Homo sapiens, UniProt O95977).
T1 sequence (O95977 whole entry): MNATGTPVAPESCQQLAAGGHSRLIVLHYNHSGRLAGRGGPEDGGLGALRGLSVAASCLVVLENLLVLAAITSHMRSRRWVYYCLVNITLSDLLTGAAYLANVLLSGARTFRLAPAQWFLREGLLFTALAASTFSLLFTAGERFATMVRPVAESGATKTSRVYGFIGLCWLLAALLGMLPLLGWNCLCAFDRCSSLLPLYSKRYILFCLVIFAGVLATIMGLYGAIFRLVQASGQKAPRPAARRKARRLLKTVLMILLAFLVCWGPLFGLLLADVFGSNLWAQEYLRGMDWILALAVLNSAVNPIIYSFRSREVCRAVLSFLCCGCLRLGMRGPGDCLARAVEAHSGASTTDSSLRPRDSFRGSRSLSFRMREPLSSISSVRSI
To be noted: 25 °C. The protocol:
(§1) The assay measures the displacement of [33P]-labeled sphingosine-1-phosphate (S1P) by test compounds from human S1P receptors expressed on CHO cell membranes. Binding was performed for 60 min at room temperature and terminated by collecting the membranes onto GF/B filter plates with a Packard Filtermate Universal Harvester. Filter bound radionuclide was measured on a PerkinElmer 1450 MicroBeta. Specific binding was calculated by subtracting radioactivity that remained in the presence of 1000-fold excess of unlabeled S1P.

For experiment [2], the target named is Sphingosine 1-phosphate receptor 5 (Homo sapiens, UniProt Q9H228). The conditions noted are these: 25 °C. Here is the method: as §1
Chain of Sphingosine 1-phosphate receptor 5 (Q9H228 whole entry): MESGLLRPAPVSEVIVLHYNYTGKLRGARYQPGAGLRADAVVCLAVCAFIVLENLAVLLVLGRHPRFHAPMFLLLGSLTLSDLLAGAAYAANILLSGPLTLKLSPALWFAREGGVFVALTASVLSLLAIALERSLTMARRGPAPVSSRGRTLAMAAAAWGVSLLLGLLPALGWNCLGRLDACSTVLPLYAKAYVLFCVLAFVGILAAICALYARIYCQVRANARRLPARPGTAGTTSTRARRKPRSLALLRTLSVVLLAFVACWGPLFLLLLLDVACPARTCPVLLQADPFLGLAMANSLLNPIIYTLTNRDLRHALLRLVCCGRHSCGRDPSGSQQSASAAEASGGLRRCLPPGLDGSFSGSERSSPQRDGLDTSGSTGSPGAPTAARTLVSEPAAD
In experiment [3] the target is Sphingosine 1-phosphate receptor 3 (Homo sapiens, UniProt Q99500). To be noted: pH 7.5; 22 °C. The protocol:
as §1

Chain of Sphingosine 1-phosphate receptor 3 (Q99500 whole entry): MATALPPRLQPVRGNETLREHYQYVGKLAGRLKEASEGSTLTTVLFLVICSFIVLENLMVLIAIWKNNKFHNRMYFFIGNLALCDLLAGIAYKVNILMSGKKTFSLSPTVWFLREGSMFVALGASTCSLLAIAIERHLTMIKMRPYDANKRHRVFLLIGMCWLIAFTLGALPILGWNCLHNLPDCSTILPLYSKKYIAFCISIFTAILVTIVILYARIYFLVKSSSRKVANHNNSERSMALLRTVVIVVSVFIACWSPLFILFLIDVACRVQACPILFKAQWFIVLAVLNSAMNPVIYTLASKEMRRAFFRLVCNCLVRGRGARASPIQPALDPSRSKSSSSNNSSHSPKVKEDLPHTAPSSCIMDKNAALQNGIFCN

The IC50 is the concentration needed to halve the response being measured. Turning to `CCCCc1ccc(-c2nc(-c3ccc(CN4CC(C(=O)O)C4)cc3)no2)cc1` [1-({4-[5-(4-butylphenyl)-1,2,4-oxadiazol-3-yl]phenyl}methyl)azetidine-3-carboxylic acid], the results for the half-maximal inhibitory concentration (IC50) in experiment [1] and in experiment [2] were 0.35 µM and 0.0024 µM, respectively.
The compound `CCC(C)(C)c1ccc(-c2nc(-c3ccc(CN4CC(C(=O)O)C4)cc3)no2)cc1` [1-[(4-{5-[4-(2-methylbutan-2-yl)phenyl]-1,2,4-oxadiazol-3-yl}phenyl)methyl]azetidine-3-carboxylic acid] had an IC50 in experiment [3] of 3.09 µM.
The same measure, in the same setting: in the case of `CC(C)(C)Cc1ccc(-c2nc(-c3ccc(CN4CC(C(=O)O)C4)cc3)no2)cc1` [1-[(4-{5-[4-(2,2-dimethylpropyl)phenyl]-1,2,4-oxadiazol-3-yl}phenyl)methyl]azetidine-3-carboxylic acid] it was 10 µM.
